Columns and labels:
human EHMT2 913-1193 = target: T1, human EHMT2 913-1193 (Homo sapiens, UniProt Q96KQ7); experiment: EHMT2 enzyme assay on histone peptide substrate (EHMT2 PEP); format: biochemical; details: Table II; read-out: EHMT2 PEP (IC50 μM)
T1 construct: recombinant purified human EHMT2 913-1193, Viva; purchased Viva
T1 sequence (Q96KQ7 913-1193): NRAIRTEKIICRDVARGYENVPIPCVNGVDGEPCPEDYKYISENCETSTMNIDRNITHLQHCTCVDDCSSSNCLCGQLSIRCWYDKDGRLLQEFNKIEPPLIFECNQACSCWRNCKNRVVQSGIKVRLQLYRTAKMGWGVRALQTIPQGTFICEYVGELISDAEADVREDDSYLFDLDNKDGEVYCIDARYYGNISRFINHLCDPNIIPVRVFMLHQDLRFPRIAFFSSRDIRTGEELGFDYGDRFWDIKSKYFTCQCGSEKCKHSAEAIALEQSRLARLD
Description: Recombinant purified human EHMT2 913-1193 (55 μM) synthesized by Viva was used for all experiments. Biotinylated histone peptides were synthesized by Biopeptide and HPLC-purified to >95% purity. Streptavidin Flashplates and seals were purchased from PerkinElmer and 384 Well V-bottom Polypropylene Plates were from Greiner. ^3H-labeled S-adenosylmethionine (^3H-SAM) was obtained from American Radiolabeled Chemicals with a specific activity of 80 Ci/mmol. Unlabeled SAM and S-adenosylhomocysteine (SAH) were obtained from American Radiolabeled Chemicals and Sigma-Aldrich respectively. Flashplates were washed in a Biotek ELx-405 with 0.1% Tween. 384-well Flashplates and 96-well filter binding plates were read on a TopCount microplate reader (PerkinElmer). Compound serial dilutions were performed on a Freedom EVO (Tecan) and spotted into assay plates using a Thermo Scientific Matrix PlateMate (Thermo Scientific). Reagent cocktails were added by Multidrop Combi (Thermo Scientific).
General Procedure for EHMT2 Enzyme Assay on Histone Peptide Substrate.
10-point curves of test compounds were made on a Freedom EVO (Tecan) using serial 3-fold dilutions in DMSO, beginning at 2.5 mM (final top concentration of compound was 50 μM and the DMSO was 2%). A 1 μL aliquot of the inhibitor dilution series was spotted in a polypropylene 384-well V-bottom plate (Greiner) using a Thermo Scientific Matrix PlateMate (Thermo Scientific). […] Compounds were incubated for 30 minutes with 40 μL per well of 0.031 nM EHMT2 (recombinant purified human EHMT2 913-1193, Viva) in 1× assay buffer (20 mM Bicine [pH 7.5], 0.002% Tween 20, 0.005% Bovine Skin Gelatin and 1 mM TCEP). […] Reactions were incubated for 60 minutes at room temperature and quenched with 10 μL per well of 400 μM unlabeled SAM, then transferred to a 384-well streptavidin Flashplate (PerkinElmer) and washed in a Biotek ELx-405 well washer with 0.1% Tween after 60 minutes. 384-well Flashplates were read on a TopCount microplate reader (PerkinElmer).

EHMT1 = target: T2, EHMT1 (Homo sapiens, UniProt Q9H9B1); experiment: EHMT1 enzyme assay on peptide substrate (EHMT1 PEP); format: biochemical; details: Table II; read-out: EHMT1 PEP (IC50 μM)
T2 sequence (Q9H9B1 1-1298): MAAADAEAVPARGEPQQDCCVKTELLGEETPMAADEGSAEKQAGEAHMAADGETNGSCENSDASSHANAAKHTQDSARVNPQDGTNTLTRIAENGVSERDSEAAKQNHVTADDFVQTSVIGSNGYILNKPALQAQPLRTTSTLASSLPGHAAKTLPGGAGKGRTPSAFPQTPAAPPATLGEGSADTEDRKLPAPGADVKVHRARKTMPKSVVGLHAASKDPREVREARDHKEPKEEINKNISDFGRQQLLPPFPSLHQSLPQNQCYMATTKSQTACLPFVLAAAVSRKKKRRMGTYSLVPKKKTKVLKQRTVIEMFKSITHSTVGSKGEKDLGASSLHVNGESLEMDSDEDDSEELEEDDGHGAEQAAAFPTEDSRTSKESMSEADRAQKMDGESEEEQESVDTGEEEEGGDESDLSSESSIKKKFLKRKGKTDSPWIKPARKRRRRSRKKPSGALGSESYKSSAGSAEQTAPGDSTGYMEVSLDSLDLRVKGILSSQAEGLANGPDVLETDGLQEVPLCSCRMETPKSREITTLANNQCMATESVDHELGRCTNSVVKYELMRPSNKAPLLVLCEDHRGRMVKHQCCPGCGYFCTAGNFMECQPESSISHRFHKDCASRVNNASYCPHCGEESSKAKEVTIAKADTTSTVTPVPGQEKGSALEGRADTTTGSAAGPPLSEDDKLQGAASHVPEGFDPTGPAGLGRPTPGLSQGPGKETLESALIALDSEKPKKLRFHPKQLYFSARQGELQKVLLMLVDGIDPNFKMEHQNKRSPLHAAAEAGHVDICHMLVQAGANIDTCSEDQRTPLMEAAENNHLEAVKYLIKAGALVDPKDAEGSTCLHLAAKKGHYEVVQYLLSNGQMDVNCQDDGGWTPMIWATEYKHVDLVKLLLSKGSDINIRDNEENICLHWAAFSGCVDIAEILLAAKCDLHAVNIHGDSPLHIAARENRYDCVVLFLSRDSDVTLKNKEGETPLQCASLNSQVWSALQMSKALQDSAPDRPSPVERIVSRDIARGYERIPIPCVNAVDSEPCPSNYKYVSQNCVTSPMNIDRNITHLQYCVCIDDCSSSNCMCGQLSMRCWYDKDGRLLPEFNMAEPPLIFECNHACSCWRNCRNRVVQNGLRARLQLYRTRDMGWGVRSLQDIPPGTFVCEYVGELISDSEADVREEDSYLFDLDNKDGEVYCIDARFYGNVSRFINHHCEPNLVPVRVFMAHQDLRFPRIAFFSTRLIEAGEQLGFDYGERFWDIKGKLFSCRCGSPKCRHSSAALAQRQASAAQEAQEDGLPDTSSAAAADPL

| SMILES | IC50 (human EHMT2 913-1193) | IC50 (EHMT1) |
| --- | --- | --- |
| COc1ccc(Nc2ccnc(NCC3CCNCC3)c2)cc1OCCCN1CCCC1 [Compound 11, N^4-(4-methoxy-3-(3-(pyrrolidin-1-yl)propoxy)phenyl)-N^2-(piperidin-4-ylmethyl)pyridine-2,4-diamine] | < 0.1 µM | < 0.1 µM |
| CCCCNc1nccc(NC2CCCCC2)n1 [Compound 58] | > 10 µM | > 10 µM |
| CCCCNc1nccc(NCC2CCOCC2)n1 [Compound 59] | > 10 µM | > 10 µM |
| CCCCNc1nccc(NCC2CCNCC2)n1 [Compound 60] | 1 to 10 µM | 1 to 10 µM |
| CCCCNc1nccc(NCC2CCCCC2)n1 [Compound 61] | > 10 µM | > 10 µM |
| CCCCNc1nccc(NCC2CCOC2)n1 (stereo not drawn) [Compound 62] | > 10 µM | > 10 µM |
| CCCCNc1nccc(NC2CCOCC2)n1 [Compound 63] | > 10 µM | > 10 µM |
| CCCCNc1nccc(NC2CCNCC2)n1 [Compound 64] | > 10 µM | > 10 µM |
| CCCCNc1nccc(NC2CCN(C(C)=O)CC2)n1 [Compound 65] | > 10 µM | > 10 µM |
| CCCCNc1nccc(NCC2CCN(C(C)=O)CC2)n1 [Compound 66] | > 10 µM | > 10 µM |
| CCCCNc1nccc(NCC2CCCO2)n1 (stereo not drawn) [Compound 67] | > 10 µM | > 10 µM |
| CCCCNc1nccc(NCC2CCC(N)CC2)n1 (stereo not drawn) [Compound 68] | > 10 µM | > 10 µM |
| CCCCNc1nccc(NCC2CCC(NC(C)=O)CC2)n1 (stereo not drawn) [Compound 69] | > 10 µM | > 10 µM |
| CCCCNc1nccc(NC2CCC(N)CC2)n1 (stereo not drawn) [Compound 70] | > 10 µM | > 10 µM |
| CCCCNc1nccc(NC2CCC(NC(C)=O)CC2)n1 (stereo not drawn) [Compound 71] | > 10 µM | > 10 µM |
| CCCCNc1ccnc(NCCCC)n1 [Compound 72] | > 10 µM | > 10 µM |
| CCCCNc1ccnc(NCCCN2CCCC2)n1 [Compound 73] | > 10 µM | > 10 µM |
| CCCCNc1nccc(NCCCN2CCCC2)n1 [Compound 74] | > 10 µM | > 10 µM |
| COCCNc1nccc(N)n1 [Compound 75] | > 10 µM | > 10 µM |
| CCCCNc1nccc(NCCCN(C)C)n1 [Compound 76] | > 10 µM | > 10 µM |
| CCCCNc1ccnc(NCCCN)n1 [Compound 77] | > 10 µM | > 10 µM |
| CCCCNc1ccnc(NCCCN(C)C)n1 [Compound 78] | > 10 µM | > 10 µM |
| CCCCNc1nccc(NCCCN)n1 [Compound 79] | > 10 µM | 1 to 10 µM |
| CCCCNc1nccc(C(N)=O)n1 [Compound 80] | > 10 µM | > 10 µM |
| CCCCNc1nccc(C(=O)NC2CCOCC2)n1 [Compound 81] | > 10 µM | > 10 µM |
| CCCCNc1ncc(-c2ccccc2)c(N)n1 [Compound 82] | > 10 µM | > 10 µM |

| SMILES | IC50 (human EHMT2 913-1193) | IC50 (EHMT1) |
| --- | --- | --- |
| CCCCNc1ncc(C#N)c(NCC2CCNCC2)n1 [Compound 83] | > 10 µM | > 10 µM |
| CCCCNc1nc(NCC2CCNCC2)ncc1C#N [Compound 84] | > 10 µM | > 10 µM |
| CCCCNc1nc(NCC2CCNCC2)cc(C(N)=O)n1 [Compound 85] | > 10 µM | > 10 µM |
| CCCCNc1nc(C)cc(NCC2CCNCC2)n1 [Compound 86] | 1 to 10 µM | 1 to 10 µM |
| CCCCNc1ccnc(NCC2CCN(C)CC2)n1 [Compound 87] | 1 to 10 µM | 1 to 10 µM |
| CCCCNc1ncc(C(N)=O)c(NCC2CCNCC2)n1 [Compound 89] | > 10 µM | > 10 µM |
| CCCCNc1ncc(C)c(NCC2CCNCC2)n1 [Compound 91] | > 10 µM | 1 to 10 µM |
| O=C(NCCNc1ccnc(NCC2CCNCC2)n1)c1ccc2c(c1)OC(F)(F)O2 [Compound 92] | > 10 µM | > 10 µM |
| O=C(NCCNc1ccnc(NCC2CCNCC2)n1)c1cn(C2CC2)nn1 [Compound 93] | > 10 µM | > 10 µM |
| CCCCNc1nc(C#N)cc(NCC2CCNCC2)n1 [Compound 94] | 1 to 10 µM | 1 to 10 µM |
| O=C(NCCNc1ccnc(NCC2CCNCC2)n1)c1ccc2[nH]c(=O)oc2c1 [Compound 95] | > 10 µM | > 10 µM |
| O=C1Cc2cc(C(=O)NCCNc3ccnc(NCC4CCNCC4)n3)ccc2N1 [Compound 96] | 1 to 10 µM | 1 to 10 µM |
| CN1CCC(CNc2nccc(NCCNC(=O)c3ccc4c(c3)CC(=O)N4)n2)CC1 [Compound 97] | 1 to 10 µM | 1 to 10 µM |
| CC(=O)N1CCC(CNc2nccc(NCCNC(=O)c3ccc4c(c3)CC(=O)N4)n2)CC1 [Compound 98] | > 10 µM | > 10 µM |
| O=C(NCCNc1ccnc(NCC2CCNCC2)n1)c1ccc(N2CCCC2)cc1 [Compound 99] | > 10 µM | > 10 µM |
| O=C(NCCNc1ccnc(NCC2CCNCC2)n1)c1cccc(N2CCCC2)c1 [Compound 100] | > 10 µM | > 10 µM |
| CN1CCC(CNc2nccc(NCCNC(=O)c3ccc4c(c3)CC(=O)N4)n2)CC1 [Compound 101] | 1 to 10 µM | > 10 µM |
| COc1ccc(Nc2nccc(N3CCOCC3)n2)cc1OCCCN1CCCC1 [Compound 102] | > 10 µM | > 10 µM |
| COc1ccc(Nc2nccc(CNC3CCNCC3)n2)cc1OCCCN1CCCC1 [Compound 104] | > 10 µM | > 10 µM |
| O=C1Cc2cc(C(=O)NCCNc3nccc(NCC4CCNCC4)n3)ccc2N1 [Compound 105] | 1 to 10 µM | > 10 µM |
| COc1ccc(Nc2nccc(CNC3CCN(C(C)=O)CC3)n2)cc1OCCCN1CCCC1 [Compound 106] | 1 to 10 µM | 0.1 to 1 µM |
| COc1ccc(Nc2nccc(CNC3CCOCC3)n2)cc1OCCCN1CCCC1 [Compound 107] | > 10 µM | > 10 µM |
| COc1ccc(Nc2cc(NCC3CCNCC3)ncn2)cc1OCCCN1CCCC1 [Compound 108] | 1 to 10 µM | 1 to 10 µM |
| COc1ccc(Nc2nccc(NCC3CCNCC3)n2)cc1OCCCC1CCCC1 [Compound 109] | 1 to 10 µM | 1 to 10 µM |
| COc1cnc(Nc2cc(CNC3CCOCC3)ccn2)cc1OCCCN1CCCC1 [Compound 110] | 1 to 10 µM | 1 to 10 µM |

— patent publication US20210198277A1, “AMINE-SUBSTITUTED ARYL OR HETEROARYL COMPOUNDS” (Epizyme, Inc., priority 2016, published 2021)
